Patent publication US20260015358A1, “BICYCLIC DERIVATIVES, COMPOSITIONS AND USES THEREOF” (Danatlas Pharmaceuticals Co., Ltd., priority 2023, published 2026)

Legend:
[1] = biological target: T1, WRN [UniPro: Q14191 (WRN_HUMAN), N500-C946] (Homo sapiens (Human), UniProt Q14191); experiment: WRN ATPase assay (ADP-Glo); assay type: biochemical; conditions: WRN enzymatic activity assay
[2] = biological target: T1, WRN [UniPro: Q14191 (WRN_HUMAN), N500-C946]; experiment: WRN unwinding assay (FORKF DNA, fluorescence); assay type: biochemical; conditions: Table 14

T1 sequence (Q14191 500-946): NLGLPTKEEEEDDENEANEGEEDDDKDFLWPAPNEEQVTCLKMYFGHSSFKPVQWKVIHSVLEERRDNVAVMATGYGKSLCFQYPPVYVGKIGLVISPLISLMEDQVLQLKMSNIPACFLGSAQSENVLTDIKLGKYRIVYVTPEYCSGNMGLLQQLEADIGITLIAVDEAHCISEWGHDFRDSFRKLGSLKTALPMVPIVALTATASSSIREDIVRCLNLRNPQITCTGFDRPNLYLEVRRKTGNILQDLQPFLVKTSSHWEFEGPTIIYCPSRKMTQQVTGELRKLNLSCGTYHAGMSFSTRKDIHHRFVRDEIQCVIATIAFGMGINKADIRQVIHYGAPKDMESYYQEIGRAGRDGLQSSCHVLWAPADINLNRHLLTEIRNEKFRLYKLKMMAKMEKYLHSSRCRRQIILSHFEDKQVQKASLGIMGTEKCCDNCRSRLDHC

| Structure (SMILES) | IC50 [1] [nM] | IC50 [2] [nM] |
| --- | --- | --- |
| CCc1c(N2CCN(C(=O)CNC(=O)c3ncnc(C)c3O)CC2)c(=O)n2nc(C3=CCOCC3)nc2n1CC(=O)Nc1ccc(C(F)(F)F)cc1Cl [Example 210, N-(2-(4-(4-(2-((2-Chloro-4-(trifluoromethyl)phenyl)amino)-2-oxoethyl)-2-(3,6-dihydro-2H-pyran-4-yl)-5-ethyl-7-oxo-4,7-dihydro-[1,2,4]triazolo[1,5-a]pyrimidin-6-yl)piperazin-1-yl)-2-oxoethyl)-5-hydroxy-6-methylpyrimidine-4-carboxamide] | < 100 | < 100 |
| CCc1c(N2CCN(C(=O)C(=O)NC3CC3)CC2)c(=O)n2nc(C3=CCOCC3)nc2n1CC(=O)Nc1ccc(C(F)(F)F)cc1Cl [Example 359, 2-(4-(4-(2-((2-Chloro-4-(trifluoromethyl)phenyl)amino)-2-oxoethyl)-2-(3,6-dihydro-2H-pyran-4-yl)-5-ethyl-7-oxo-4,7-dihydro-[1,2,4]triazolo[1,5-a]pyrimidin-6-yl)piperazin-1-yl)-N-cyclopropyl-2-oxoacetamide] | 100 to 1000 | 100 to 1000 |
| CCc1c(N2CCN(C(=O)CNC(=O)c3cccnc3O)CC2)c(=O)n2nc(C3=CCOCC3)nc2n1CC(=O)Nc1ccc(C(F)(F)F)cc1Cl [Example 282, N-(2-(4-(4-(2-((2-Chloro-4-(trifluoromethyl)phenyl)amino)-2-oxoethyl)-2-(3,6-dihydro-2H-pyran-4-yl)-5-ethyl-7-oxo-4,7-dihydro-[1,2,4]triazolo[1,5-a]pyrimidin-6-yl)piperazin-1-yl)-2-oxoethyl)-2-hydroxynicotinamide] | < 100 | < 100 |
| CCc1c(N2CCN(C(=O)CNC(=O)c3ncco3)CC2)c(=O)n2nc(C3=CCOCC3)nc2n1CC(=O)Nc1ccc(C(F)(F)F)cc1Cl [Example 123, N-(2-(4-(4-(2-((2-Chloro-4-(trifluoromethyl)phenyl)amino)-2-oxoethyl)-2-(3,6-dihydro-2H-pyran-4-yl)-5-ethyl-7-oxo-4,7-dihydro-[1,2,4]triazolo[1,5-a]pyrimidin-6-yl)piperazin-1-yl)-2-oxoethyl)oxazole-2-carboxamide] | < 100 | < 100 |
| CCc1c(N2CCN(C(=O)c3nc(C(F)(F)F)c[nH]3)CC2)c(=O)n2nc(C3=CCOCC3)nc2n1CC(=O)Nc1ccc(C(F)(F)F)cc1Cl [Example 1, N-(2-Chloro-4-(trifluoromethyl)phenyl)-2-(2-(3,6-dihydro-2H-pyran-4-yl)-5-ethyl-7-oxo-6-(4-(4-(trifluoromethyl)-1H-imidazole-2-carbonyl)piperazin-1-yl)-[1,2,4]triazolo[1,5-a]pyrimidin-4(7H)-yl)acetamide] | 100 to 1000 | 100 to 1000 |
| CCc1c(N2CCN(C(=O)CNC(=O)c3cccc(NC)c3F)CC2)c(=O)n2nc(C3=CCOCC3)nc2n1CC(=O)Nc1ccc(C(F)(F)F)cc1Cl [Example 287, N-(2-(4-(4-(2-((2-Chloro-4-(trifluoromethyl)phenyl)amino)-2-oxoethyl)-2-(3,6-dihydro-2H-pyran-4-yl)-5-ethyl-7-oxo-4,7-dihydro-[1,2,4]triazolo[1,5-a]pyrimidin-6-yl)piperazin-1-yl)-2-oxoethyl)-2-fluoro-3-(methylamino)benzamide] | < 100 | < 100 |
| CCNc1ccc(F)c(C(=O)NCC(=O)N2CCN(c3c(CC)n(CC(=O)Nc4ccc(C(F)(F)F)cc4Cl)c4nc(C5=CCOCC5)nn4c3=O)CC2)c1 [Example 374, N-(2-(4-(4-(2-((2-Chloro-4-(trifluoromethyl)phenyl)amino)-2-oxoethyl)-2-(3,6-dihydro-2H-pyran-4-yl)-5-ethyl-7-oxo-4,7-dihydro-[1,2,4]triazolo[1,5-a]pyrimidin-6-yl)piperazin-1-yl)-2-oxoethyl)-5-(ethylamino)-2-fluorobenzamide] | < 100 | < 100 |
| CCc1c(N2CCN(C(=O)CNC(=O)CC3CCCO3)CC2)c(=O)n2nc(C3=CCOCC3)nc2n1CC(=O)Nc1ccc(C(F)(F)F)cc1Cl (centres unmarked) [Example 338, N-(2-Chloro-4-(trifluoromethyl)phenyl)-2-(2-(3,6-dihydro-2H-pyran-4-yl)-5-ethyl-7-oxo-6-(4-((2-(tetrahydrofuran-2-yl)acetyl)glycyl)piperazin-1-yl)-[1,2,4]triazolo[1,5-a]pyrimidin-4(7H)-yl)acetamide] | < 100 | < 100 |
| CCc1c(N2CCN(C(=O)c3cnn4cccc4c3O)CC2)c(=O)n2nc(C3=CCOCC3)nc2n1CC(=O)Nc1ccc(C(F)(F)F)cc1Cl [Example 84, N-(2-Chloro-4-(trifluoromethyl)phenyl)-2-(2-(3,6-dihydro-2H-pyran-4-yl)-5-ethyl-6-(4-(4-hydroxypyrrolo[1,2-b]pyridazine-3-carbonyl)piperazin-1-yl)-7-oxo-[1,2,4]triazolo[1,5-a]pyrimidin-4(7H)-yl)acetamide] | < 100 | < 100 |
| CCc1c(N2CCN(C(=O)C(=O)Nc3nccs3)CC2)c(=O)n2nc(N3CCOCC3)nc2n1CC(=O)Nc1ccc(C(F)(F)F)cc1Cl [Example 258, 2-(4-(4-(2-((2-Chloro-4-(trifluoromethyl)phenyl)amino)-2-oxoethyl)-5-ethyl-2-morpholino-7-oxo-4,7-dihydro-[1,2,4]triazolo[1,5-a]pyrimidin-6-yl)piperazin-1-yl)-2-oxo-N-(thiazol-2-yl)acetamide] | < 100 | < 100 |
| CCc1c(N2CCN(C(=O)c3c[nH]c(=O)[nH]c3=O)CC2)c(=O)n2nc(C3=CCOCC3)nc2n1CC(=O)Nc1ccc(C(F)(F)F)cc1Cl [Example 50, N-(2-Chloro-4-(trifluoromethyl)phenyl)-2-(2-(3,6-dihydro-2H-pyran-4-yl)-6-(4-(2,4-dioxo-1,2,3,4-tetrahydropyrimidine-5-carbonyl)piperazin-1-yl)-5-ethyl-7-oxo-[1,2,4]triazolo[1,5-a]pyrimidin-4(7H)-yl)acetamide] | < 100 | 100 to 1000 |
| CCC(=O)NS(=O)(=O)N1CCN(c2c(CC)n(CC(=O)Nc3ccc(C(F)(F)F)cc3Cl)c3nc(C4=CCOCC4)nn3c2=O)CC1 [Example 29, N-((4-(4-(2-((2-Chloro-4-(trifluoromethyl)phenyl)amino)-2-oxoethyl)-2-(3,6-dihydro-2H-pyran-4-yl)-5-ethyl-7-oxo-4,7-dihydro-[1,2,4]triazolo[1,5-a]pyrimidin-6-yl)piperazin-1-yl)sulfonyl) propionamide] | < 100 | < 100 |
| CCc1c(N2CCN(C(=O)c3nn(C)c(=O)[nH]c3=O)CC2)c(=O)n2nc(C3=CCOCC3)nc2n1CC(=O)Nc1ccc(C(F)(F)F)cc1Cl [Example 58, N-(2-Chloro-4-(trifluoromethyl)phenyl)-2-(2-(3,6-dihydro-2H-pyran-4-yl)-5-ethyl-6-(4-(2-methyl-3,5-dioxo-2,3,4,5-tetrahydro-1,2,4-triazine-6-carbonyl)piperazin-1-yl)-7-oxo-[1,2,4]triazolo[1,5-a]pyrimidin-4(7H)-yl)acetamide] | < 100 | < 100 |
| CCc1c(N2CCN(C(=O)CNC(=O)NC3CC3)CC2)c(=O)n2nc(C3=CCOCC3)nc2n1CC(=O)Nc1ccc(C(F)(F)F)cc1Cl [Example 184, N-(2-Chloro-4-(trifluoromethyl)phenyl)-2-(6-(4-((cyclopropylcarbamoyl)glycyl)piperazin-1-yl)-2-(3,6-dihydro-2H-pyran-4-yl)-5-ethyl-7-oxo-[1,2,4]triazolo[1,5-a]pyrimidin-4(7H)-yl)acetamide] | < 100 | < 100 |
| CCc1c(N2CCN(C(=O)CNc3ncccn3)CC2)c(=O)n2nc(C3=CCOCC3)nc2n1CC(=O)Nc1ccc(C(F)(F)F)cc1Cl [Example 207, N-(2-Chloro-4-(trifluoromethyl)phenyl)-2-(2-(3,6-dihydro-2H-pyran-4-yl)-5-ethyl-7-oxo-6-(4-(pyrimidin-2-ylglycyl)piperazin-1-yl)-[1,2,4]triazolo[1,5-a]pyrimidin-4(7H)-yl)acetamide] | 100 to 1000 | 100 to 1000 |
| CCc1c(N2CCN(C(=O)CNC(=O)c3ccccc3F)CC2)c(=O)n2nc(N3Cc4cnn(C)c4C3)nc2n1CC(=O)Nc1cc(C)cs1 [Example 263, N-(2-(4-(5-Ethyl-2-(1-methyl-4,6-dihydropyrrolo[3,4-c]pyrazol-5 (1H)-yl)-4-(2-((4-methylthiophen-2-yl)amino)-2-oxoethyl)-7-oxo-4,7-dihydro-[1,2,4]triazolo[1,5-a]pyrimidin-6-yl)piperazin-1-yl)-2-oxoethyl)-2-fluorobenzamide] | < 100 | < 100 |
| CCc1c(N2CCN(C(=O)CNC(=O)c3ccncc3)CC2)c(=O)n2nc(C3=CCOCC3)nc2n1CC(=O)Nc1ccc(C(F)(F)F)cc1Cl [Example 96, N-(2-(4-(4-(2-((2-Chloro-4-(trifluoromethyl)phenyl)amino)-2-oxoethyl)-2-(3,6-dihydro-2H-pyran-4-yl)-5-ethyl-7-oxo-4,7-dihydro-[1,2,4]triazolo[1,5-a]pyrimidin-6-yl)piperazin-1-yl)-2-oxoethyl)isonicotinamide] | < 100 | < 100 |
| CCc1c(N2CCN(C(=O)c3ncnc4[nH]ccc34)CC2)c(=O)n2nc(C3=CCOCC3)nc2n1CC(=O)Nc1ccc(Cl)cc1C(F)(F)F [Example 69, 2-(6-(4-(7H-Pyrrolo[2,3-d]pyrimidine-4-carbonyl)piperazin-1-yl)-2-(3,6-dihydro-2H-pyran-4-yl)-5-ethyl-7-oxo-[1,2,4]triazolo[1,5-a]pyrimidin-4(7H)-yl)-N-(4-chloro-2-(trifluoromethyl)phenyl)acetamide] | 100 to 1000 | < 100 |
| CCc1c(N2CCN(C(=O)C(=O)NC3CCCC3)CC2)c(=O)n2nc(C3=CCOCC3)nc2n1CC(=O)Nc1ccc(C(F)(F)F)cc1Cl [Example 357, 2-(4-(4-(2-((2-Chloro-4-(trifluoromethyl)phenyl)amino)-2-oxoethyl)-2-(3,6-dihydro-2H-pyran-4-yl)-5-ethyl-7-oxo-4,7-dihydro-[1,2,4]triazolo[1,5-a]pyrimidin-6-yl)piperazin-1-yl)-N-cyclopentyl-2-oxoacetamide] | 100 to 1000 | 100 to 1000 |
